Tested on: target transcript mRNA in A549 cells
Assay: Level of mRNA of target transcript in A549 cells by quantitative RT-PCR (Tables 12 and 13)
Format: cell-based, human
Settings: 24 h post-transfection; for mRNA knockdown of energy and metabolism gene target transcript, 0.1 nM: 0.1 nM siRNA; for mRNA knockdown of energy and metabolism gene target transcript, 1 nM: 1 nM siRNA; for mRNA knockdown of energy and metabolism gene target transcript, 10 nM: 10 nM siRNA
Description: A549 cells were transfected as described before with 0.1, 1.0 and 10 nM siRNA as listed in Tables 10 and 11 and the relative mRNA levels quantified 24 h post-transfection. RNA was purified from cells using Trizol® extraction as per the manufacturer's protocol (Invitrogen). cDNA was prepared by digesting approximately 200 ng purified RNA with DNAse I (Invitrogen) for 15 minutes at room temperature, followed by 15 minutes at 65° C. in the presence of 25 mM EDTA. 30 ng random primers were added and incubated for 10 minutes at 65° C., 1 minute on ice; Superscript® III polymerase (Invitrogen) was added in presence of 5 nM DTT (Invitrogen) and 1 mM deoxyribonucleotides (Invitrogen), and the reaction incubated at 25° C. for 5 minutes, followed by an hour at 50° C. cDNA was diluted 1:3 in 10 mM Tris pH 7.0, and quantitative RT-PCR carried out on an ABI Prism 7900HT (Applied Biosciences, Inc., Foster City, Calif.) using FastStart TaqMan SYBRGreen (Roche, Basel, Switzerland) or Platinum SYBR Green (Invitrogen) and 360 nM of the primers specific for gene targets and housekeeping genes HPRT and Lamin. Reduction in target mRNA levels following siRNA transfection are given in Tables 12 and 13, together with the gene specific primer sequences. Primer sequences used for the housekeeping genes HPRT and Lamin are given in SEQ ID NO: 4885-4888.

Row | Substance | mRNA knockdown of energy and metabolism gene target transcript, 0.1 nM | mRNA knockdown of energy and metabolism gene target transcript, 1 nM | mRNA knockdown of energy and metabolism gene target transcript, 10 nM
1 | 3556 (TACGGATGTTGGGATCATTATTA; chemistry not given here) [compound 3556] | ++ (70-90% mRNA knockdown) | ++ (70-90% mRNA knockdown) | –
2 | 3572 (GGTCACCAGCAAGAACGGTGGGATTTACT; chemistry not given here) [compound 3572] | + (50-70% mRNA knockdown) | ++ (70-90% mRNA knockdown) | –
3 | 3593 (TTGCCAAAAACAGAGGAGCAAGATACAGGC; chemistry not given here) [compound 3593] | − (<50% mRNA knockdown) | + (50-70% mRNA knockdown) | –
4 | 3584 (ACAGAGGAGCAAGATACAGGC; chemistry not given here) [compound 3584] | ++ (70-90% mRNA knockdown) | ++ (70-90% mRNA knockdown) | –
5 | 3546 (AACTACCGCGAGCTGCGCTGGTT; chemistry not given here) [compound 3546] | + (50-70% mRNA knockdown) | ++ (70-90% mRNA knockdown) | +++ (>90% mRNA knockdown)
6 | 3575 (AGCGGTTTTTCTCCAAGTACTC; chemistry not given here) [compound 3575] | +++ (>90% mRNA knockdown) | +++ (>90% mRNA knockdown) | –
7 | 3560 (CGGCTACGGATGTTGGGATCATTATTA; chemistry not given here) [compound 3560] | ++ (70-90% mRNA knockdown) | ++ (70-90% mRNA knockdown) | –
8 | 3573 (TGGTCACCAGCAAGAACGGTGGGATTTACT; chemistry not given here) [compound 3573] | ++ (70-90% mRNA knockdown) | +++ (>90% mRNA knockdown) | –
9 | 3537 (CAAGGGTAGGAGCCCTACACTAGG; chemistry not given here) [compound 3537] | ++ (70-90% mRNA knockdown) | +++ (>90% mRNA knockdown) | +++ (>90% mRNA knockdown)
10 | 3535 (AGGGTAGGAGCCCTACACTAGG; chemistry not given here) [compound 3535] | ++ (70-90% mRNA knockdown) | +++ (>90% mRNA knockdown) | –
11 | 3534 (GGGTAGGAGCCCTACACTAGG; chemistry not given here) [compound 3534] | ++ (70-90% mRNA knockdown) | ++ (70-90% mRNA knockdown) | –
12 | 3565 (AGCAAGAACGGTGGGATTTACT; chemistry not given here) [compound 3565] | ++ (70-90% mRNA knockdown) | +++ (>90% mRNA knockdown) | –
13 | 3543 (TGGAGCCAAGGGTAGGAGCCCTACACTAGG; chemistry not given here) [compound 3543] | ++ (70-90% mRNA knockdown) | ++ (70-90% mRNA knockdown) | –
14 | 3553 (TGAAGGCAACTACCGCGAGCTGCGCTGGTT; chemistry not given here) [compound 3553] | ++ (70-90% mRNA knockdown) | ++ (70-90% mRNA knockdown) | –
15 | 1690 (TGCCAACAGGATCTTCGGCCCCATCTG; chemistry not given here) [compound 1690] | ++ (70-90% mRNA knockdown) | ++ (70-90% mRNA knockdown) | –
16 | 1699 (AAGAACGTGAAGCTCCCTGACGCCTA; chemistry not given here) [compound 1699] | − (<50% mRNA knockdown) | ++ (70-90% mRNA knockdown) | –
17 | 3551 (AAGGCAACTACCGCGAGCTGCGCTGGTT; chemistry not given here) [compound 3551] | ++ (70-90% mRNA knockdown) | − (<50% mRNA knockdown) | –
18 | 1691 (TTGCCAACAGGATCTTCGGCCCCATCTG; chemistry not given here) [compound 1691] | − (<50% mRNA knockdown) | ++ (70-90% mRNA knockdown) | –
19 | 3578 (TGAAGCGGTTTTTCTCCAAGTACTC; chemistry not given here) [compound 3578] | + (50-70% mRNA knockdown) | ++ (70-90% mRNA knockdown) | –
20 | 1692 (TTTGCCAACAGGATCTTCGGCCCCATCTG; chemistry not given here) [compound 1692] | − (<50% mRNA knockdown) | − (<50% mRNA knockdown) | –
21 | 1688 (CCAACAGGATCTTCGGCCCCATCTG; chemistry not given here) [compound 1688] | + (50-70% mRNA knockdown) | ++ (70-90% mRNA knockdown) | –
22 | 1697 (GAACGTGAAGCTCCCTGACGCCTA; chemistry not given here) [compound 1697] | ++ (70-90% mRNA knockdown) | + (50-70% mRNA knockdown) | –
23 | 3550 (AGGCAACTACCGCGAGCTGCGCTGGTT; chemistry not given here) [compound 3550] | ++ (70-90% mRNA knockdown) | ++ (70-90% mRNA knockdown) | +++ (>90% mRNA knockdown)
24 | 3540 (AGCCAAGGGTAGGAGCCCTACACTAGG; chemistry not given here) [compound 3540] | − (<50% mRNA knockdown) | − (<50% mRNA knockdown) | − (<50% mRNA knockdown)
25 | 3544 (CTACCGCGAGCTGCGCTGGTT; chemistry not given here) [compound 3544] | ++ (70-90% mRNA knockdown) | ++ (70-90% mRNA knockdown) | –
26 | 1695 (ACGTGAAGCTCCCTGACGCCTA; chemistry not given here) [compound 1695] | ++ (70-90% mRNA knockdown) | ++ (70-90% mRNA knockdown) | –
27 | 3548 (GCAACTACCGCGAGCTGCGCTGGTT; chemistry not given here) [compound 3548] | ++ (70-90% mRNA knockdown) | ++ (70-90% mRNA knockdown) | +++ (>90% mRNA knockdown)
